Experimental data published in PubChem BioAssay (NCI).
Where “and” joins values, the source holds several entries; their conditions need not be identical. Identical values can stand only once.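 48-hour exposure; five concentrations; linearly interpolated endpoints. GI50 marks 50% less growth. At the TGI there is no net growth.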

Tested on: MDA-MB-468 breast
Assay: NCI tumour cell line growth inhibition, 48 h

| SMILES | GI50 | TGI |
| --- | --- | --- |
| O=C(CC12CC3CC(CC(C3)C1)C2)NCCOCCOCCOCCNC(=O)c1cc2c(o1)C(=O)c1ccccc1C2=O | 1.39 µM | 4.36 µM |
| O=P([O-])(O)OP(=O)([O-])O.[NH-][C@@H]1CCCC[C@H]1[NH-].[Pt+4] | 21.5 µM and 8.19 µM | > 100 µM and 27.7 µM |
| O=C(Nc1ccc(F)cc1F)c1cc(Br)ccc1O | 2.54 µM | 6.91 µM |
| O=S(=O)(c1ccc(N=C2NN=C(c3c[nH]c4ccccc34)CS2)cc1)N1CCOCC1 | 5.46 µM | > 100 µM |
| Cc1ccc(NC2=C(Cl)C(=O)c3nc(C)ccc3C2=O)c(C)c1 | 1.61 µM | 3.32 µM |
| O=C(N/N=C/c1ccccc1Cl)c1ccccc1Nc1ccnc(C(F)(F)F)c1 | 2.25 µM | 11.1 µM |
| Nc1cc(-c2cccc(OC(F)(F)F)c2)nc2ccc(N3CCCC3)cc12 | 0.0337 µM and 0.0304 µM and 0.0288 µM | 0.237 µM and 0.115 µM and 0.136 µM |
| CC1(C)CC(n2cnc(-c3ccc(F)cc3)c2-c2ccnc(N)n2)CC(C)(C)N1 | 4.23 µM | 24.2 µM |
| Cc1cc(N2CCN(c3ccnc4cc(Cl)ccc34)CC2)nc(NC2CCCCC2)n1 | 1.59 µM | 3.88 µM |
| Cc1cc(-c2nnc(N)nc2-c2ccc(F)cc2)cc(Cl)n1 | 20.6 µM | > 100 µM |
| CN(C)C1CCN(C(=O)c2ccc(NC(=O)Nc3ccc(-c4nc(N5CCOCC5)nc(N5CCOCC5)n4)cc3)cc2)CC1 | 0.00749 µM and 0.013 µM | 0.0636 µM and 0.185 µM |
| COc1cc2c(Oc3ccc4[nH]c(C)cc4c3F)ccnc2cc1OCC1(N)CC1 | 0.312 µM | 1.67 µM |
| CCCN1CCN(c2ccc3nc(-c4ccc5nc(-c6cc(OC)ccc6OC)[nH]c5c4)[nH]c3c2)CC1 | 1.7 µM | 3.31 µM |
| C=C[C@H]1CCC/C=C/[C@@H]2C[C@H](O)C[C@H]2[C@H](O)/C=C/C(=O)O1 | < 0.01 µM | < 0.0153 µM |
| COC(=O)c1c2c(c(C)[n+]([O-])c1C)C(=O)C=C(NCc1ccc(OC)cc1)C2=O | 0.679 µM | 2.01 µM |
| COc1c(Cl)c2c(c(OC)c1OC)-c1ccc(SC)c(=O)cc1[C@@H](NC(=O)OCC(F)(F)F)CC2 | < 0.01 µM | 17.3 µM |
